# Measurements taken from ChEMBL document CHEMBL5046270, “A Selective and Orally Bioavailable Quinoline-6-Carbonitrile-Based Inhibitor of CDK8/19 Mediator Kinase with Tumor-Enriched Pharmacokinetics” (J Med Chem, 2022).
# Active and inactive are the calls of the source. The rule behind the calls is not given here.
# Key:
# CDK8/Cyclin C = CDK8/Cyclin C (Homo sapiens, UniProt P49336); test: Inhibition of kinase tracer 236 binding to His tagged recombinant human CDK8/cyclin C incubated for 60 min FRET based LanthaScreen Eu-Kinase binding assay; format: protein-complex assay
# Sequence of CDK8/Cyclin C (P49336 whole entry): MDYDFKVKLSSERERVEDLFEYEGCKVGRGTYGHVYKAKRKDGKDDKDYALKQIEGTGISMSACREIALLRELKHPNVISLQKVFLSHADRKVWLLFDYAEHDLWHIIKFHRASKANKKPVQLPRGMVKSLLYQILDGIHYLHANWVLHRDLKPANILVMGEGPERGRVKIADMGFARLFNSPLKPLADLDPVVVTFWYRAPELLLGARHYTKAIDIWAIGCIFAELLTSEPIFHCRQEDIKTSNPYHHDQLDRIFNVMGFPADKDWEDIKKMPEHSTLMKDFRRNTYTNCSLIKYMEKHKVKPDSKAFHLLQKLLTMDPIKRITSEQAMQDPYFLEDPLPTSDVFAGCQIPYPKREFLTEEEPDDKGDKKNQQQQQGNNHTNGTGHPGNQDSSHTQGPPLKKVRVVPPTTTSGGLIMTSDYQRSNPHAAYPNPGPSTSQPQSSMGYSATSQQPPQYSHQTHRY
# Sequence of CDK8/Cyclin C (P24863 whole entry, further chain): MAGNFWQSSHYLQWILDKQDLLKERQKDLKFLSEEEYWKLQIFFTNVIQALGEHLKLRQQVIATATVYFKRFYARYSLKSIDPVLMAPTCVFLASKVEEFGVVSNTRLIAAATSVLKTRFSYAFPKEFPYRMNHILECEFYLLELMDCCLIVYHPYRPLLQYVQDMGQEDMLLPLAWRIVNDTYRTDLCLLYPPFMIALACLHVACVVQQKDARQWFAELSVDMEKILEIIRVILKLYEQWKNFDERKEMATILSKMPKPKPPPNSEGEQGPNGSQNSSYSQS
# [1] = Inhibition of NF kappa B dependent CDK8/CDK19 in HEK293 cell incubated for 3 hrs in presence of TNF-alpha by Spectra max microtitre plate reader; format: cell-based; details: Homo sapiens, HEK293, 3 h
# [2] = Inhibition of CDK8/CDK19 in MV4-11 cells and measured after 7 days by Spectra max iD5 microplate reader; format: cell-based, Homo sapiens
# HEK293 [3] = test: Downregulation of CDK8/19 in HEK293 cells assessed as reversal of mRNA expression level in MYC gene at 1 uM for 3 hr pretreatment and measured after 3 hr post wash-off by qt-PCR analysis; format: functional, cell-based; details: Homo sapiens, time 6.0 hrs
# [4] = target: T1, CDK8/Cyclin C (Homo sapiens) (UniProt P49336+P24863); test: Binding affinity to kinase tracer 236 binding to His tagged recombinant human CDK8/cyclinC assessed as rate constant (kon) by TR FRET based assay; format: protein-complex assay
# [5] = target: T2, Cyclin-C/Cyclin-dependent kinase 19 (Homo sapiens) (UniProt Q9BWU1+P24863); test: Binding affinity to recombinant human CDK19/cyclinC assessed as rate constant (kon) by TR FRET based assay; format: protein-complex assay
# [6] = target: T1, CDK8/Cyclin C (Homo sapiens); test: Binding affinity to kinase tracer 236 binding to His tagged recombinant human CDK8/cyclinC assessed as rate constant (koff) by TR FRET based assay; format: protein-complex assay
# [7] = target: T2, Cyclin-C/Cyclin-dependent kinase 19 (Homo sapiens); test: Binding affinity to recombinant human CDK19/cyclinC assessed as rate constant (koff) by TR FRET based assay; format: protein-complex assay
# [8] = target: T1, CDK8/Cyclin C (Homo sapiens); test: Binding affinity to kinase tracer 236 binding to His tagged recombinant human CDK8/cyclinC assessed as mean residence time by TR FRET based assay; format: protein-complex assay
# [9] = target: T2, Cyclin-C/Cyclin-dependent kinase 19 (Homo sapiens); test: Binding affinity to recombinant human CDK19/cyclinC assessed as mean residence time by TR FRET based assay; format: protein-complex assay
# [10] = target: T1, CDK8/Cyclin C (Homo sapiens); test: Binding affinity to kinase tracer 236 binding to His tagged recombinant human CDK8/cyclinC assessed as half life by TR FRET based assay; format: protein-complex assay
# [11] = target: T2, Cyclin-C/Cyclin-dependent kinase 19 (Homo sapiens); test: Binding affinity to recombinant human CDK19/cyclinC assessed as half life by TR FRET based assay; format: protein-complex assay
# [12] = Metabolic stability in human hepatocyte assessed as intrinsic clearance at 2 uM measured per 10^6 by LC-MS/MS analysis; format: ADME, cell-based; details: hepatocytes
# HEK293 [13] = test: Downregulation of CDK8/19 in HEK293 cells assessed as reversal of mRNA expression level in KCTD12 gene at 1 uM for 3 hr pretreatment and measured after 3 hr post wash-off by qt-PCR analysis; format: functional, cell-based; details: Homo sapiens, time 6.0 hrs
SMILES,IC50 (CDK8/Cyclin C),IC50 [1],IC50 [2],also measured
N#Cc1ccc2ncnc(NCCc3ccccc3)c2c1,35 nM,349 nM,994 nM,
Brc1ccc2nccc(NCCc3ccccc3)c2c1,183 nM,> 5000 nM,,
NC(=O)c1ccc2nccc(NCCc3ccccc3)c2c1,> 1000 nM,> 5000 nM,,
N#Cc1ccc2nccc(NCCc3ccc4cc(C(=O)N5CC[S+]([O-])CC5)ccc4c3)c2c1,5.8 nM,160 nM,222 nM,
CN(CCCNC(=O)OC(C)(C)C)C(=O)c1ccc2cc(CCNc3ccnc4ccc(C#N)cc34)ccc2c1,9.3 nM,208 nM,173 nM,
N#Cc1ccc2nccc(NCCc3ccc4cc(C(=O)N5CCN(CCCN)CC5)ccc4c3)c2c1,6.5 nM,870 nM,305 nM,
CC(=O)N1CCN(C(=O)c2ccc3cc(CCNc4ccnc5ccc(C#N)cc45)ccc3c2)CC1,12 nM,184 nM,297 nM,
FC(F)(F)c1ccc2nccc(NCCc3ccccc3)c2c1,356 nM,> 5000 nM,,
CN1CCN(C(=O)c2ccc3cc(CCNc4ncnc5ccc(C#N)cc45)ccc3c2)CC1 [SENEXIN B],,,,Activity (HEK293 [3]): inactive; K [4]: 1.65 10^6/M/s; K [5]: 2.13 10^6/M/s; K [6]: 0.00325 s⁻¹; K [7]: 0.00628 s⁻¹; MRT [8]: 5.13 min; MRT [9]: 2.65 min; T1/2 [10]: 3.55 min; T1/2 [11]: 1.84 min; CLH [12]: 0.0198 mL/min; Activity (HEK293 [13]): inactive

# Now from value to compound, other results behind:
IC50 (CDK8/Cyclin C),IC50 [1],IC50 [2],SMILES,also measured
19 nM,137 nM,209 nM,CC(C)(C)OC(=O)N1CCN(C(=O)c2ccc3cc(CCNc4ccnc5ccc(C#N)cc45)ccc3c2)CC1,
8.1 nM,81 nM,167 nM,CC(C)(C)OC(=O)NCCCN1CCN(C(=O)c2ccc3cc(CCNc4ccnc5ccc(C#N)cc45)ccc3c2)CC1,
> 1000 nM,> 5000 nM,,c1ccc(CCNc2ccnc3ccccc23)cc1,
9.1 nM,138 nM,93 nM,N#Cc1ccc2nccc(NCCc3ccc4cc(C(=O)N5CCSCC5)ccc4c3)c2c1,
44 nM,> 5000 nM,,Clc1ccc2nccc(NCCc3ccccc3)c2c1,
> 1000 nM,> 5000 nM,,CNC(=O)c1ccc2nccc(NCCc3ccccc3)c2c1,
212 nM,> 5000 nM,,Ic1ccc2nccc(NCCc3ccccc3)c2c1,
4.6 nM,244 nM,271 nM,N#Cc1ccc2nccc(NCCc3ccc4cc(C(=O)N5CCS(=N)(=O)CC5)ccc4c3)c2c1,
> 1000 nM,> 5000 nM,,Nc1ccc2nccc(NCCc3ccccc3)c2c1,
9.2 nM,118 nM,297 nM,CN(CCCN)C(=O)c1ccc2cc(CCNc3ccnc4ccc(C#N)cc34)ccc2c1,
